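Five concentrations, 48 hours, 96-well plates. The concentration for 50% growth inhibition is given as GI50. TGI denotes the concentration required for complete inhibition of growth.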
Legend:
Assay in all cases: NCI-60 cell line screen, 48 h
HS 578T breast = system: HS 578T breast
786-0 renal = system: 786-0 renal
OVCAR-8 ovarian = system: OVCAR-8 ovarian
SNB-19 CNS = system: SNB-19 CNS
NCI-H460 lung = system: NCI-H460 lung
CCRF-CEM leukemia = system: CCRF-CEM leukemia
SF-268 CNS = system: SF-268 CNS
COLO 205 colon = system: COLO 205 colon
RXF 393 renal = system: RXF 393 renal
MALME-3M melanoma = system: MALME-3M melanoma
UACC-62 melanoma = system: UACC-62 melanoma
HCT-116 colon = system: HCT-116 colon
NCI-H522 lung = system: NCI-H522 lung
M14 melanoma = system: M14 melanoma
EKVX NSCLC = system: EKVX NSCLC
RPMI-8226 leukemia = system: RPMI-8226 leukemia
UO-31 renal = system: UO-31 renal
DU-145 prostate = system: DU-145 prostate
SK-MEL-5 melanoma = system: SK-MEL-5 melanoma
A549 NSCLC = system: A549 NSCLC
MDA-MB-231 breast = system: MDA-MB-231 breast
NCI-H23 lung = system: NCI-H23 lung
BT-549 breast = system: BT-549 breast
SF-539 CNS = system: SF-539 CNS
SF-295 CNS = system: SF-295 CNS
NCI-H226 lung = system: NCI-H226 lung
CAKI-1 renal = system: CAKI-1 renal
UACC-257 melanoma = system: UACC-257 melanoma
TK-10 renal = system: TK-10 renal
OVCAR-5 ovarian = system: OVCAR-5 ovarian
IGROV1 ovarian = system: IGROV1 ovarian
K-562 leukemia = system: K-562 leukemia
HCC-2998 colon = system: HCC-2998 colon
LOX IMVI melanoma = system: LOX IMVI melanoma
OVCAR-4 ovarian = system: OVCAR-4 ovarian
HOP-62 NSCLC = system: HOP-62 NSCLC
SK-OV-3 ovarian = system: SK-OV-3 ovarian
MOLT-4 leukemia = system: MOLT-4 leukemia
NCI/ADR-RES ovarian = system: NCI/ADR-RES ovarian
SK-MEL-28 melanoma = system: SK-MEL-28 melanoma
KM12 colon = system: KM12 colon
MDA-MB-435 = system: MDA-MB-435
HT29 colon = system: HT29 colon
U251 CNS = system: U251 CNS
HCT-15 colon = system: HCT-15 colon
HOP-92 NSCLC = system: HOP-92 NSCLC
SK-MEL-2 melanoma = system: SK-MEL-2 melanoma
OVCAR-3 ovarian = system: OVCAR-3 ovarian
ACHN renal = system: ACHN renal
SN12C renal = system: SN12C renal
PC-3 prostate = system: PC-3 prostate
MCF7 breast = system: MCF7 breast
T-47D breast = system: T-47D breast
SR leukemia = system: SR leukemia
SNB-75 CNS = system: SNB-75 CNS
HL-60(TB) leukemia = system: HL-60(TB) leukemia
SW-620 colon = system: SW-620 colon
A498 renal = system: A498 renal

[N-]=[N+]=NCCCn1c2c(c3ccc([N+](=O)[O-])cc3c1=O)C(=O)c1cc(Br)ccc1-2
GI50 (HS 578T breast): > 100 µM
TGI (HS 578T breast): > 100 µM
GI50 (786-0 renal): 42.4 µM
TGI (786-0 renal): > 100 µM
GI50 (OVCAR-8 ovarian): > 100 µM
TGI (OVCAR-8 ovarian): > 100 µM
GI50 (SNB-19 CNS): > 100 µM
TGI (SNB-19 CNS): > 100 µM
GI50 (NCI-H460 lung): 8.35 µM
TGI (NCI-H460 lung): > 100 µM
GI50 (CCRF-CEM leukemia): 0.545 µM
TGI (CCRF-CEM leukemia): > 100 µM
GI50 (SF-268 CNS): > 100 µM
TGI (SF-268 CNS): > 100 µM
GI50 (COLO 205 colon): > 100 µM
TGI (COLO 205 colon): > 100 µM
GI50 (RXF 393 renal): > 100 µM
TGI (RXF 393 renal): > 100 µM
GI50 (MALME-3M melanoma): > 100 µM
TGI (MALME-3M melanoma): > 100 µM
GI50 (UACC-62 melanoma): > 100 µM
TGI (UACC-62 melanoma): > 100 µM
GI50 (HCT-116 colon): 3.01 µM
TGI (HCT-116 colon): > 100 µM
GI50 (NCI-H522 lung): > 100 µM
TGI (NCI-H522 lung): > 100 µM
GI50 (M14 melanoma): 3.02 µM
TGI (M14 melanoma): > 100 µM
GI50 (EKVX NSCLC): > 100 µM
TGI (EKVX NSCLC): > 100 µM
GI50 (RPMI-8226 leukemia): > 100 µM
TGI (RPMI-8226 leukemia): > 100 µM
GI50 (UO-31 renal): > 100 µM
TGI (UO-31 renal): > 100 µM
GI50 (DU-145 prostate): 14.9 µM
TGI (DU-145 prostate): > 100 µM
GI50 (SK-MEL-5 melanoma): > 100 µM
TGI (SK-MEL-5 melanoma): > 100 µM
GI50 (A549 NSCLC): > 100 µM
TGI (A549 NSCLC): > 100 µM
GI50 (MDA-MB-231 breast): > 100 µM
TGI (MDA-MB-231 breast): > 100 µM
GI50 (NCI-H23 lung): > 100 µM
TGI (NCI-H23 lung): > 100 µM
GI50 (BT-549 breast): > 100 µM
TGI (BT-549 breast): > 100 µM
GI50 (SF-539 CNS): > 100 µM
TGI (SF-539 CNS): > 100 µM
GI50 (SF-295 CNS): 1.66 µM
TGI (SF-295 CNS): > 100 µM
GI50 (NCI-H226 lung): > 100 µM
TGI (NCI-H226 lung): > 100 µM
GI50 (CAKI-1 renal): 0.887 µM
TGI (CAKI-1 renal): > 100 µM
GI50 (UACC-257 melanoma): > 100 µM
TGI (UACC-257 melanoma): > 100 µM
GI50 (TK-10 renal): > 100 µM
TGI (TK-10 renal): > 100 µM
GI50 (OVCAR-5 ovarian): > 100 µM
TGI (OVCAR-5 ovarian): > 100 µM
GI50 (IGROV1 ovarian): > 100 µM
TGI (IGROV1 ovarian): > 100 µM
GI50 (K-562 leukemia): > 100 µM
TGI (K-562 leukemia): > 100 µM
GI50 (HCC-2998 colon): > 100 µM
TGI (HCC-2998 colon): > 100 µM
GI50 (LOX IMVI melanoma): > 100 µM
TGI (LOX IMVI melanoma): > 100 µM
GI50 (OVCAR-4 ovarian): > 100 µM
TGI (OVCAR-4 ovarian): > 100 µM
GI50 (HOP-62 NSCLC): 56.1 µM
TGI (HOP-62 NSCLC): > 100 µM
GI50 (SK-OV-3 ovarian): > 100 µM
TGI (SK-OV-3 ovarian): > 100 µM
GI50 (MOLT-4 leukemia): 1.15 µM
TGI (MOLT-4 leukemia): > 100 µM
GI50 (NCI/ADR-RES ovarian): > 100 µM
TGI (NCI/ADR-RES ovarian): > 100 µM
GI50 (SK-MEL-28 melanoma): > 100 µM
TGI (SK-MEL-28 melanoma): > 100 µM
GI50 (KM12 colon): > 100 µM
TGI (KM12 colon): > 100 µM
GI50 (MDA-MB-435): > 100 µM
TGI (MDA-MB-435): > 100 µM
GI50 (HT29 colon): > 100 µM
TGI (HT29 colon): > 100 µM
GI50 (U251 CNS): 45.8 µM
TGI (U251 CNS): > 100 µM
GI50 (HCT-15 colon): > 100 µM
TGI (HCT-15 colon): > 100 µM
GI50 (HOP-92 NSCLC): 37.7 µM
TGI (HOP-92 NSCLC): > 100 µM
GI50 (SK-MEL-2 melanoma): > 100 µM
TGI (SK-MEL-2 melanoma): > 100 µM
GI50 (OVCAR-3 ovarian): > 100 µM
TGI (OVCAR-3 ovarian): > 100 µM
GI50 (ACHN renal): > 100 µM
TGI (ACHN renal): > 100 µM
GI50 (SN12C renal): > 100 µM
TGI (SN12C renal): > 100 µM
GI50 (PC-3 prostate): > 100 µM
TGI (PC-3 prostate): > 100 µM
GI50 (MCF7 breast): 8.15 µM
TGI (MCF7 breast): > 100 µM
GI50 (T-47D breast): > 100 µM
TGI (T-47D breast): > 100 µM

CC(=O)OC12C=C(C)C(C(C)C1)C1C(=O)N(CCN3CCCCC3)C(=O)C12 (configuration not stated)
GI50 (HS 578T breast): 48 µM
TGI (HS 578T breast): > 50 µM
GI50 (786-0 renal): > 50 µM
TGI (786-0 renal): > 50 µM
GI50 (OVCAR-8 ovarian): > 50 µM
TGI (OVCAR-8 ovarian): > 50 µM
GI50 (SNB-19 CNS): > 50 µM
TGI (SNB-19 CNS): > 50 µM
GI50 (CCRF-CEM leukemia): > 50 µM
TGI (CCRF-CEM leukemia): > 50 µM
GI50 (SF-268 CNS): > 50 µM
TGI (SF-268 CNS): > 50 µM
GI50 (COLO 205 colon): > 50 µM
TGI (COLO 205 colon): > 50 µM
GI50 (RXF 393 renal): 19.9 µM
TGI (RXF 393 renal): > 50 µM
GI50 (MALME-3M melanoma): > 50 µM
TGI (MALME-3M melanoma): > 50 µM
GI50 (UACC-62 melanoma): > 50 µM
TGI (UACC-62 melanoma): > 50 µM
GI50 (HCT-116 colon): > 50 µM
TGI (HCT-116 colon): > 50 µM
GI50 (NCI-H522 lung): > 50 µM
TGI (NCI-H522 lung): > 50 µM
GI50 (M14 melanoma): > 50 µM
TGI (M14 melanoma): > 50 µM
GI50 (EKVX NSCLC): > 50 µM
TGI (EKVX NSCLC): > 50 µM
GI50 (UO-31 renal): > 50 µM
TGI (UO-31 renal): > 50 µM
GI50 (DU-145 prostate): > 50 µM
TGI (DU-145 prostate): > 50 µM
GI50 (SK-MEL-5 melanoma): > 50 µM
TGI (SK-MEL-5 melanoma): > 50 µM
GI50 (SR leukemia): > 50 µM
TGI (SR leukemia): > 50 µM
GI50 (A549 NSCLC): > 50 µM
TGI (A549 NSCLC): > 50 µM
GI50 (MDA-MB-231 breast): > 50 µM
TGI (MDA-MB-231 breast): > 50 µM
GI50 (NCI-H23 lung): > 50 µM
TGI (NCI-H23 lung): > 50 µM
GI50 (BT-549 breast): > 50 µM
TGI (BT-549 breast): > 50 µM
GI50 (SF-539 CNS): > 50 µM
TGI (SF-539 CNS): > 50 µM
GI50 (SF-295 CNS): > 50 µM
TGI (SF-295 CNS): > 50 µM
GI50 (NCI-H226 lung): > 50 µM
TGI (NCI-H226 lung): > 50 µM
GI50 (CAKI-1 renal): > 50 µM
TGI (CAKI-1 renal): > 50 µM
GI50 (UACC-257 melanoma): > 50 µM
TGI (UACC-257 melanoma): > 50 µM
GI50 (TK-10 renal): > 50 µM
TGI (TK-10 renal): > 50 µM
GI50 (OVCAR-5 ovarian): > 50 µM
TGI (OVCAR-5 ovarian): > 50 µM
GI50 (SNB-75 CNS): > 50 µM
TGI (SNB-75 CNS): > 50 µM
GI50 (IGROV1 ovarian): > 50 µM
TGI (IGROV1 ovarian): > 50 µM
GI50 (K-562 leukemia): > 50 µM
TGI (K-562 leukemia): > 50 µM
GI50 (HCC-2998 colon): > 50 µM
TGI (HCC-2998 colon): > 50 µM
GI50 (LOX IMVI melanoma): > 50 µM
TGI (LOX IMVI melanoma): > 50 µM
GI50 (OVCAR-4 ovarian): > 50 µM
TGI (OVCAR-4 ovarian): > 50 µM
GI50 (HOP-62 NSCLC): > 50 µM
TGI (HOP-62 NSCLC): > 50 µM
GI50 (SK-OV-3 ovarian): > 50 µM
TGI (SK-OV-3 ovarian): > 50 µM
GI50 (HL-60(TB) leukemia): > 50 µM
TGI (HL-60(TB) leukemia): > 50 µM
GI50 (MOLT-4 leukemia): > 50 µM
TGI (MOLT-4 leukemia): > 50 µM
GI50 (NCI/ADR-RES ovarian): > 50 µM
TGI (NCI/ADR-RES ovarian): > 50 µM
GI50 (SW-620 colon): > 50 µM
TGI (SW-620 colon): > 50 µM
GI50 (KM12 colon): > 50 µM
TGI (KM12 colon): > 50 µM
GI50 (MDA-MB-435): > 50 µM
TGI (MDA-MB-435): > 50 µM
GI50 (HT29 colon): > 50 µM
TGI (HT29 colon): > 50 µM
GI50 (U251 CNS): > 50 µM
TGI (U251 CNS): > 50 µM
GI50 (HCT-15 colon): > 50 µM
TGI (HCT-15 colon): > 50 µM
GI50 (HOP-92 NSCLC): > 50 µM
TGI (HOP-92 NSCLC): > 50 µM
GI50 (SK-MEL-2 melanoma): > 50 µM
TGI (SK-MEL-2 melanoma): > 50 µM
GI50 (ACHN renal): > 50 µM
TGI (ACHN renal): > 50 µM
GI50 (SN12C renal): > 50 µM
TGI (SN12C renal): > 50 µM
GI50 (PC-3 prostate): > 50 µM
TGI (PC-3 prostate): > 50 µM
GI50 (A498 renal): > 50 µM
TGI (A498 renal): > 50 µM
GI50 (T-47D breast): > 50 µM
TGI (T-47D breast): > 50 µM
